Experimental data from publication PMC8311653, “Design, Synthesis, In Vitro and In Vivo Characterization of Selective NKCC1 Inhibitors for the Treatment of Core Symptoms in Down Syndrome” (Journal of Medicinal Chemistry, 2021).

Experiments:
[1] = tested on: Ts65Dn mice; assay: Open field test (locomotor activity); type: in vivo, mouse; conditions: ip 0.6 mg kg-1 daily
Method: All animal procedures were approved by IIT licensing in compliance with the Italian Ministry of Health (D.Lgs 26/2014) and EU guidelines (Directive 2010/63/EU). A veterinarian was employed to maintain the health and comfort of the animals. Mice were housed in filtered cages in a temperature-controlled room with a 12:12 h dark/light cycle and with ad libitum access to water and food. All efforts were made to minimize animal suffering and use the lowest possible number of animals required to produce statistical relevant results, according to the “3Rs concept”. In this study, we used Ts65Dn mice maintained in their original genetic background[57] by crossing (more than 40 times) Ts65Dn female to C57BL/6JEi × C3SnHeSnJ (B6EiC3) F1 males (Jackson Laboratories). Ts65Dn mice were genotyped by PCR as previously described.[58] Only males were used for behavioral experiments. […]
Ts65Dn male mice (8–16 weeks old) were tested after 1 week of treatment with vehicle or 40 (0.6 mg kg^–1 i.p.). […] The tasks were video-recorded and then analyzed manually by a blind operator. […] The alternation score was calculated as the percentage of correct choices (i.e., left–right or right–left) over the total number of the 10 possible alternations. […]

[2] = tested on: Ts65Dn mice; assay: Novel object recognition (NOR) test; type: in vivo, mouse; conditions: ip 0.6 mg kg-1 daily, chronic (7-21 days)
Method: A veterinarian was employed to maintain the health and comfort of the animals. Mice were housed in filtered cages in a temperature-controlled room with a 12:12 h dark/light cycle and with ad libitum access to water and food. All efforts were made to minimize animal suffering and use the lowest possible number of animals required to produce statistical relevant results, according to the “3Rs concept”. In this study, we used Ts65Dn mice maintained in their original genetic background[57] by crossing (more than 40 times) Ts65Dn female to C57BL/6JEi × C3SnHeSnJ (B6EiC3) F1 males (Jackson Laboratories). Ts65Dn mice were genotyped by PCR as previously described.[58] Only males were used for behavioral experiments. Ts65Dn and controls were randomly assigned to vehicle groups (2% DMSO in saline), bumetanide (Sigma, 0.6 mg kg^–1 body weight), or 40 (0.6 mg kg^–1 body weight) and treated daily for ∼21 days by intraperitoneal injection (i.p.). On the day of behavioral testing, injection was performed 1 h before the task began.
Ts65Dn male mice (8–16 weeks old) were tested after 1 week of treatment with vehicle or 40 (0.6 mg kg^–1 i.p.). The battery of tests was run over a total period of ∼14 days (four behavioral tests with the following order Open Field, NOR, T-maze, and CFC). […] The tasks were video-recorded and then analyzed manually by a blind operator.

CN(C)S(=O)(=O)c1cc(C(=O)O)c(O)cc1NCCCCCCCC(F)(F)F [Compound 40, 5-(N,N-Dimethylsulfamoyl)-2-hydroxy-4-((8,8,8-trifluorooctyl)amino)benzoic Acid]
hyperactivity in open field (distance traveled and average walking speed) [1]: rescued also the hyperactivity | novel-discrimination ability in the NOR task (discrimination index) [2]: completely rescued
